Laboratory results: patent US12655130B2 (ASSEMBLY BIOSCIENCES, INC., priority 2020, dated 2026)

Each compound was assayed on HBV viral load (viral production from HepAD38 cells) (assay: Activity of test compounds on viral production from HepAD38 cells (viral load by qPCR of HBV core sequence)). Conditions: Hepatitis B virus, HePAD38, 120 h, viral load lowering, 5 days, qPCR of supernatant, read-out: VL HepAD38 EC50 range.
Format: cell-based
Method in brief: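 HepAD38 cells seeded at 50,000/well in tetracycline-free medium with 2% FBS, treated 5 days at 37 °C with compounds from 10 μM top concentration. Supernatant HBV DNA quantified by TaqMan qPCR of core sequence against HBV DNA standards, relative to DMSO wells; viability by CellTiter-Glo; EC50/CC50 by four-parameter logistic fit.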

Row | SMILES | EC50 [nM]
1 | Cn1cnc(C2CC3CC(O)(c4c(F)c(C(C)(C)O)nn4C)CC3C2)c1C(=O)Nc1ccc(F)c(Cl)c1 (stereo not drawn) [Example 66, N-(3-Chloro-4-fluorophenyl)-4-(5-(4-fluoro-3-(2-hydroxypropan-2-yl)-1-methyl-1H-pyrazol-5-yl)-5-hydroxyoctahydropentalen-2-yl)-1-methyl-1H-imidazole-5-carboxamide] | < 10
2 | CCOC(=O)Oc1cc(C2(O)CC3CC(c4ncn(C)c4C(=O)Nc4ccc(F)c(Cl)c4)CC3C2)n(C)n1 (stereo not drawn) [Example 222, 5-(5-(5-((3-Chloro-4-fluorophenyl)carbamoyl)-1-methyl-1H-imidazol-4-yl)-2-hydroxyoctahydropentalen-2-yl)-1-methyl-1H-pyrazol-3-yl ethyl carbonate] | < 10
3 | CC(O)c1nn(C)cc1C1(O)CC2CC(c3ncn(C)c3C(=O)Nc3ccc(F)c(Cl)c3)CC2C1 (single isomer, unassigned) [Example 188, N-(3-Chloro-4-fluorophenyl)-4-(5-hydroxy-5-(3-(1-hydroxyethyl)-1-methyl-1H-pyrazol-4-yl)octahydropentalen-2-yl)-1-methyl-1H-imidazole-5-carboxamide] | < 10
4 | Cc1nc(C2CC3CC(O)(c4ccnn4C(C)C)CC3C2)c(C(=O)Nc2ccc(F)c(Cl)c2)n1C (stereo not drawn) [Example 140, N-(3-Chloro-4-fluorophenyl)-4-(5-hydroxy-5-(1-isopropyl-1H-pyrazol-5-yl)octahydropentalen-2-yl)-1,2-dimethyl-1H-imidazole-5-carboxamide] | < 10
5 | CS(=O)(=O)CC1(O)CC2CC(c3nc4n(c3C(=O)Nc3ccc(F)c(Cl)c3)CCC4)CC2C1 (single isomer, unassigned) [Example 35, N-(3-Chloro-4-fluorophenyl)-2-(5-hydroxy-5-((methylsulfonyl)methyl)octahydropentalen-2-yl)-6,7-dihydro-5H-pyrrolo[1,2-a]imidazole-3-carboxamide] | < 10
6 | Cc1c(N)nn(C)c1C1(O)CC2CC(c3ncn(C)c3C(=O)Nc3ccc(F)c(Cl)c3)CC2C1 (stereo not drawn) [Example 75, 4-(5-(3-Amino-1,4-dimethyl-1H-pyrazol-5-yl)-5-hydroxyoctahydropentalen-2-yl)-N-(3-chloro-4-fluorophenyl)-1-methyl-1H-imidazole-5-carboxamide] | < 10
7 | CC(O)c1cc(C2(O)CC3CC(c4ncn(C)c4C(=O)Nc4ccc(F)c(Cl)c4)CC3C2)n(C)n1 (stereo not drawn) [Example 109, N-(3-Chloro-4-fluorophenyl)-4-(5-hydroxy-5-(3-(1-hydroxyethyl)-1-methyl-1H-pyrazol-5-yl)octahydropentalen-2-yl)-1-methyl-1H-imidazole-5-carboxamide] | < 10
8 | Cn1cnc(C2CC3CC(O)(c4c(C(F)F)cnn4C)CC3C2)c1C(=O)Nc1ccc(F)c(Cl)c1 (stereo not drawn) [Example 145, N-(3-Chloro-4-fluorophenyl)-4-(5-(4-(difluoromethyl)-1-methyl-1H-pyrazol-5-yl)-5-hydroxyoctahydropentalen-2-yl)-1-methyl-1H-imidazole-5-carboxamide] | < 10
9 | Cn1cnc(C2CC3CC(O)(c4cc(C(O)C(F)(F)F)nn4C)CC3C2)c1C(=O)Nc1ccc(F)c(C#N)c1 (stereo not drawn) [Example 107, N-(3-Cyano-4-fluorophenyl)-4-(5-hydroxy-5-(1-methyl-3-(2,2,2-trifluoro-1-hydroxyethyl)-1H-pyrazol-5-yl)octahydropentalen-2-yl)-1-methyl-1H-imidazole-5-carboxamide] | < 10
10 | Cn1cnc(C2CC3CC(O)(c4cc(O)nn4C)CC3C2)c1C(=O)Nc1ccc(F)c(Cl)c1 (stereo not drawn) [Example 53, N-(3-Chloro-4-fluorophenyl)-4-(5-hydroxy-5-(3-hydroxy-1-methyl-1H-pyrazol-5-yl)octahydropentalen-2-yl)-1-methyl-1H-imidazole-5-carboxamide] | < 10
11 | Cn1cnc(C2CC3CC(O)(c4ccccn4)CC3C2)c1C(=O)Nc1ccc(F)c(Cl)c1 (stereo not drawn) [Example 9, N-(3-Chloro-4-fluorophenyl)-4-(5-hydroxy-5-(pyridin-2-yl)octahydropentalen-2-yl)-1-methyl-1H-imidazole-5-carboxamide] | < 10
12 | Cn1cnc(C2CC3CC(O)(c4cc(OCC(C)(C)O)nn4C)CC3C2)c1C(=O)Nc1ccc(F)c(Cl)c1 (stereo not drawn) [Example 55, N-(3-Chloro-4-fluorophenyl)-4-(5-hydroxy-5-(3-(2-hydroxy-2-methylpropoxy)-1-methyl-1H-pyrazol-5-yl)octahydropentalen-2-yl)-1-methyl-1H-imidazole-5-carboxamide] | < 10
13 | Cn1ccnc1C1(O)CC2CC(c3ncn(C)c3C(=O)Nc3ccc(F)c(Cl)c3)CC2C1 (single isomer, unassigned) [Example 5, N-(3-Chloro-4-fluorophenyl)-4-(5-hydroxy-5-(1-methyl-1H-imidazol-2-yl)octahydropentalen-2-yl)-1-methyl-1H-imidazole-5-carboxamide] | < 10
14 | CCn1ncc(C2(O)CC3CC(c4ncn(C)c4C(=O)Nc4ccc(F)c(Cl)c4)CC3C2)c1C(F)(F)F (stereo not drawn) [Example 174, N-(3-Chloro-4-fluorophenyl)-4-(5-(1-ethyl-5-(trifluoromethyl)-1H-pyrazol-4-yl)-5-hydroxyoctahydropentalen-2-yl)-1-methyl-1H-imidazole-5-carboxamide] | < 10
15 | Cn1cnc(C2CC3CC(O)(c4cc(C(F)(F)F)n[nH]4)CC3C2)c1C(=O)Nc1ccc(F)c(Cl)c1 (stereo not drawn) [Example 179, N-(3-Chloro-4-fluorophenyl)-4-(5-hydroxy-5-(3-(trifluoromethyl)-1H-pyrazol-5-yl)octahydropentalen-2-yl)-1-methyl-1H-imidazole-5-carboxamide] | < 10
16 | Cn1cc(Br)c(C2(O)CC3CC(c4ncn(C)c4C(=O)Nc4ccc(F)c(Cl)c4)CC3C2)n1 (stereo not drawn) [Example 117, 4-(5-(4-bromo-1-methyl-1H-pyrazol-3-yl)-5-hydroxyoctahydropentalen-2-yl)-N-(3-chloro-4-fluorophenyl)-1-methyl-1H-imidazole-5-carboxamide] | < 10
17 | CC(C)n1ncc(C2(O)CC3CC(c4ncn(C)c4C(=O)Nc4ccc(F)c(Cl)c4)CC3C2)c1C(F)(F)F (stereo not drawn) [Example 158, N-(3-Chloro-4-fluorophenyl)-4-(5-hydroxy-5-(1-isopropyl-5-(trifluoromethyl)-1H-pyrazol-4-yl)octahydropentalen-2-yl)-1-methyl-1H-imidazole-5-carboxamide] | < 10
18 | Cn1cc(C2(O)CC3CC(c4ncn(C)c4C(=O)Nc4ccc(F)c(Cl)c4)CC3C2)c(C(C)(C)O)n1 (stereo not drawn) [Example 187, N-(3-Chloro-4-fluorophenyl)-4-(5-hydroxy-5-(3-(2-hydroxypropan-2-yl)-1-methyl-1H-pyrazol-4-yl)octahydropentalen-2-yl)-1-methyl-1H-imidazole-5-carboxamide] | < 10
19 | Cn1c(N)nc(C2CC3CC(O)CC3C2)c1C(=O)Nc1ccc(F)c(Cl)c1 (stereo not drawn) [Example 28, 2-Amino-N-(3-chloro-4-fluorophenyl)-4-(5-hydroxyoctahydropentalen-2-yl)-1-methyl-1H-imidazole-5-carboxamide] | < 10
20 | CC(C)Cn1nc([N+](=O)[O-])cc1C1(O)CC2CC(c3ncn(C)c3C(=O)Nc3ccc(F)c(Cl)c3)CC2C1 (stereo not drawn) [Example 165, N-(3-Chloro-4-fluorophenyl)-4-(5-hydroxy-5-(1-isobutyl-3-nitro-1H-pyrazol-5-yl)octahydropentalen-2-yl)-1-methyl-1H-imidazole-5-carboxamide] | < 10
21 | CC(C)(C)OC(=O)N1CCn2c(nc(C3CC4CC(O)CC4C3)c2C(=O)Nc2ccc(F)c(Cl)c2)C1 (stereo not drawn) [Example 84, tert-Butyl 3-((3-chloro-4-fluorophenyl)carbamoyl)-2-(5-hydroxy-octahydropentalen-2-yl)-5,6-dihydroimidazo[1,2-a]pyrazine-7(8H)-carboxylate] | 50 to 500
22 | Cn1cnc(C2CC3CC(O)(c4cc[nH]n4)CC3C2)c1C(=O)Nc1ccc(F)c(Cl)c1 (stereo not drawn) [Example 116, N-(3-chloro-4-fluorophenyl)-4-(5-hydroxy-5-(1H-pyrazol-3-yl)octahydropentalen-2-yl)-1-methyl-1H-imidazole-5-carboxamide] | < 10
23 | Cn1cnc(C2CC3CC(O)(c4c(Cl)c(N)nn4C)CC3C2)c1C(=O)Nc1ccc(F)cc1 (stereo not drawn) [Example 103, 4-(5-(3-amino-4-chloro-1-methyl-1H-pyrazol-5-yl)-5-hydroxyoctahydropentalen-2-yl)-N-(4-fluorophenyl)-1-methyl-1H-imidazole-5-carboxamide] | < 10
24 | Cn1cnc(C2CC3CC(CC(N)=O)CC3C2)c1C(=O)Nc1ccc(F)c(Cl)c1 (stereo not drawn) [Example 17, 4-(5-(2-Amino-2-oxoethyl)octahydropentalen-2-yl)-N-(3-chloro-4-fluorophenyl)-1-methyl-1H-imidazole-5-carboxamide] | < 10
25 | CC(N)C(=O)Nc1cc(C2(O)CC3CC(c4ncn(C)c4C(=O)Nc4ccc(F)c(Cl)c4)CC3C2)n(C)n1 (stereo not drawn) [Example 219, 4-(5-(3-(2-Aminopropanamido)-1-methyl-1H-pyrazol-5-yl)-5-hydroxyoctahydropentalen-2-yl)-N-(3-chloro-4-fluorophenyl)-1-methyl-1H-imidazole-5-carboxamide] | < 10

Same assay, conditions: viral load lowering, 5 days, qPCR of supernatant, read-out: VL HepAD38 EC50 range

Row | SMILES | EC50 [nM]
26 | Cn1cnc(C2CC3CC(O)(Cn4cccn4)CC3C2)c1C(=O)Nc1ccc(F)c(Cl)c1 (single isomer, unassigned) [Example 129, 4-(5-((1H-pyrazol-1-yl)methyl)-5-hydroxyoctahydropentalen-2-yl)-N-(3-chloro-4-fluorophenyl)-1-methyl-1H-imidazole-5-carboxamide] | 10 to 50
27 | CC(O)c1nn(C)cc1C1(O)CC2CC(c3ncn(C)c3C(=O)Nc3ccc(F)c(Cl)c3)CC2C1 (single isomer, unassigned) [Example 189, N-(3-Chloro-4-fluorophenyl)-4-(5-hydroxy-5-(3-(1-hydroxyethyl)-1-methyl-1H-pyrazol-4-yl)octahydropentalen-2-yl)-1-methyl-1H-imidazole-5-carboxamide] | < 10
